Publication PMC6348054 (Bioorganic & medicinal chemistry letters, 2018)

System: 20S proteasome core particle (20S CP)
Experiment: FRET peptide hydrolysis assay, percent stimulation over basal
Format: biochemical, Homo sapiens

CCCCC/C=C\C/C=C\CCCCCCCC(=O)O [compound 15]
Stimulation: 160%
